From US7906488B2, “Sphingolipids in treatment and prevention of steatosis and of steatosis or of hepatotoxicity and its sequelae” (Nederlandse Organisatie Voor …, priority 2004, dated 2011)

How the values were obtained:
[1] = system: galactosamine-injured primary rat hepatocytes; conditions: cited from earlier work
APOE*3Leiden mice = experiment: Effect of dietary sphingolipids on plasma C and TG levels (0.1, 0.2, 0.4% in diet); assay type: in vivo; conditions: 0.4% sphingolipid in diet, compared with 0.2%
Text: Sphingolipids: The three sphingolipids that represent the most abundant natural complex sphingolipid classes and the three of the simplest natural sphingolipids, the sphingoid bases that can be formed by enzymatic breakdown of complex sphingolipids in the intestine were used. Sphingomyelin (mainly N-palmitoyl-sphingosine-1-phosphocholine) from egg was obtained from Larodan Fine Chemicals (Stockholm, Sweden). Yeast-derived (semi)synthetic ceramide III (N-stearoyl-phytosphingosine), cerebroside (N-stearoyl-phytosphingosine-1-glucose) and phytosphingosine (PS) were from Cosmoferm BV (Delft, the Netherlands). Sphinganine and sphingosine were from Avanti Polar Lipids (Albaster, Ala.). Animals and diets: Heterozygous female APOE*3Leiden transgenic mice (Van Vlijmen et al. 1994. J. Clin. Invest 93:1403-1410.) (6 months old) were fed a Western-type diet (Hope Farms, Woerden, the Netherlands) containing 15% cocoa butter, 0.25% cholesterol, 1% corn oil, 40.5% sucrose, 20% acid casein, 10% corn starch and 5.95% cellulose (all w/w) for 5 weeks. The mice were allowed free access to food and water. Body weight and food intake were monitored weekly. In the first experiment (FIG. 2), the mice were randomized after these 5 weeks into 7 groups (n=6), based on plasma cholesterol, triglycerides, and body weight. Subsequently, the mice were fed for three weeks the same diet without or with 0.1% (w/w) phytosphingosine (PS), sphingosine, sphinganine, cerebroside, ceramide III, or sphingomyelin. […]
Plasma parameters: Tail blood samples were collected in EDTA-coated cups, or in paraoxon-coated capillaries to prevent lipolysis as described in Zambon et al. 1993 (Zambon et al. 1993. J. Lipid Res. 34:1021-1028). Plasma lipid parameters were determined using commercial kits for total cholesterol (C) Chol R1 from Roche Diagnostics, Mannheim, Germany), non-esterified free fatty acids (FFA) (NEFA-C; Wako chemicals, Neuss, Germany), Total triglycerides (TG) (Triglyceride GPO-Trinder; Sigma, St. Louis, Mo.), β-hydroxybutyrate (β-HB; Sigma) and ALAT (Reflotron GPT; Roche). Serum amyloid A (SAA) was measured by ELISA (Biosource, Nivelles, Belgium) and fibrinogen by sandwich ELISA, as described in Koopman et al., 2005 (Koopman et al. 2005. Fibrinol Proteol 11:19). […] Hepatic VLDL-TG production: The rate of hepatic VLDL-TG production, de novo apoB secretion, and VLDL composition were determined in overnight-fasted mice. […] After 30 min, the animals received a Triton WR1339 injection (Tyloxapol, Sigma; 500 mg/kg body weight in 100 μl saline) to prevent systemic lipolysis of newly-secreted hepatic VLDL-TG (Aalto-Setala et al. 1992. J. Clin. Invest 90:1889-1900.27) Blood samples were drawn at 0, 15, 30, 60, and 90 min after Triton WR1339 injection and plasma TG concentrations were determined. […]

rats = conditions: administration to the food of rats; cited from earlier work
C57bI mice = conditions: intraperitoneal injection; cited from earlier work

## CCCCCCCCC/C=C\CC/C=C/[C@@H](O)[C@H](CO[C@@H]1O[C@H](CO)[C@@H](O)[C@H](O)[C@H]1O)NC(=O)CCCCCCCCCCCCCCC [LCC, 1-O-(β-D-glucopyranosyl)-(2S,3R,4E,8Z)-2-N-palmityloctadecasphinga-4,8-diene]
[1]
  Release into the culture medium of GPT and SDH: reduce the release

## CCCCCCCCCCCCCCCCCC(=O)N[C@@H](CO)[C@H](O)[C@H](O)CCCCCCCCCCCCCC [ceramide III, N-stearoyl-phytosphingosine]
APOE*3Leiden mice
  Plasma C: decreased even more

## CCCCCCCCCCCCC/C=C/[C@@H](O)[C@H](COP(=O)([O-])OCC[N+](C)(C)C)NC(=O)CCCCCCCCCCCCCCC [sphingomyelin, N-palmitoyl-sphingosine-1-phosphocholine]
rats
  Chances of occurrence of malignant, chemically induced colon cancer: significantly decrease
APOE*3Leiden mice
  Plasma C: decreased even more

## CCCCCCCCCCCCC/C=C/[C@@H](O)[C@@H](N)CO [sphingosine]
APOE*3Leiden mice
  Plasma C: decreased even more

## glucocerebroside
C57bI mice
  Liver fat content: reduced
